# Data published in EP0565593B1, “REDUCING PESTICIDAL INTERACTIONS IN CROPS” (priority 1990, dated 1992).
# Values joined by “and” are separate entries in the source; they are usually repeats but may differ in a detail not shown here. Identical values can stand only once. Like-named read-outs stand apart in the source and are kept apart here.
# Assays:
# [1] = tested on: Velvetleaf (VELE); assay: Greenhouse test Procedure VII (same examples); assay type: in vivo, Abutilon theophrasti
# Excerpt: This procedure describes interaction among herbicide, biocide and antidote when the biocide and the antidote is applied to a soil furrow containing crop seed before emergence of the crop and the herbicide is applied after emergence of the crop and weeds. The soil and planting depth was described in Procedure IV. The containers for comparison, the biocide and antidote applications to soil furrows were described in Procedure VI. In this procedure, the seed beds of the first, second, third and fourth containers are covered by soil layers not treated with herbicide. The containers were then placed on a bench in a greenhouse and subirrigated as required for the duration of the test. The herbicide, dispersed or dissolved in water containing 0.25% v/v nonionic surfactant (X-77) was applied by a track sprayer (187 L/ha) to the emerged plants of the second, third and fourth containers about five days after planting. All treatments were run in duplicate. Plant response was observed according to Procedure IV. Variations in this procedure will be noted in the examples.
# In this example, tests were conducted according to Procedure VII for the POE application of the herbicides following in-furrow application of COUNTER® 15G insecticide (BIOCIDE No. 1) and the antidote on the pre-planted test seeds. In this test, the herbicides were Nos. 1 (MON-12000), 10 (ALLY®) and #4 (HARMONY®) and the Antidote Nos. 1, 7, 12 and 33.
# These in-furrow treatments comprised a 50-50 mix of blended granules of COUNTER with and without 5G granular antidotes at 7.4 + 7.4 mg/cm or 1.1 + 0.37 mg active ingredient (a.i.)/cm. The in-furrow initiation of the test was followed five (5) days later with POE application of the herbicides; observations were made eight (8) days later. Table 38 […]
# [2] = tested on: Velvetleaf (VELE); assay: Multi-crop greenhouse test, soil-applied (Examples 65, 66; Tables 64, 65); assay type: in vivo, Abutilon theophrasti
# Protocol: (§1) Tests according to this invention in various crops indicate widespread application of the invention. In Examples 62-66 below are described tests with a variety of herbicides contacted with COUNTER® 15G in the presence and absence of MON-7400 (Antidote No. 12); MON-13900 (No. 1); MON-4660 (No. 16) and flurazole (No. 16). Those tests were conducted according to Procedures IV or V described above and illustrated further in other foregoing examples. Plants used in all tests were, for crops (as abbreviated in parentheses); cotton (COTT); soybean (SOBE); CORN, grain sorghum (GRSO); wheat (WHEA) and RICE, and the weeds giant foxtail (GIFT) and velvetleaf (VELE). The data in the tables below represent averages of two replications.
# (§2) In this test the crops and weeds were planted 1.3 cm deep in 13.7 cm X 27.7 cm pans containing Dupo silt loam soil. The test safeners were applied in acetone solution and COUNTER 15G as dry granules to soil cover layers and incorporated by shaking in a bag. Treated cover layers were placed on seeded pans which were transferred to greenhouse benches and subirrigated. Herbicide was applied POE six (6) days after PPI initiation and observations of plant injury made ten (10) days later; results are shown in Table 61. The herbicide used in this example was BEACON (No. 8).
# In another test in the several crops and weeds used in this test series, the herbicidal component was MON-12000 (No. 1); the other components were the same. the procedure used in this test was the same as that described in Example 62, modified to use a light overhead irrigation (about 0.32 cm/day) during days 4-7 of the test. Table 64 […]
# [3] = tested on: cotton (COTT); assay: Multi-crop greenhouse test, biocide, herbicide and safener applied to soil covers (Examples 65, 66; Tables 64, 65); assay type: in vivo
# Protocol: as §1, §2
# In another test in the several crops and weeds used in this test series, the herbicidal component was MON-12000 (No. 1); the other components were the same. the procedure used in this test was the same as that described in Example 62, modified to use a light overhead irrigation (about 0.32 cm/day) during days 4-7 of the test.
# In yet another test in this series, XRD-498 (Herbicide No. 21) was used as the herbicidal component in contact with COUNTER 15G in the presence of the above safeners. The various components of the system (biocide, herbicide and safener) were applied concurrently to soil covers of the seeded plants.
# [4] = tested on: Velvetleaf (VELE); assay: whole plant or invertebrate; assay type: in vivo, Abutilon theophrasti; details: PPI
# [5] = tested on: Velvetleaf (VELE); assay type: in vivo, Abutilon theophrasti
# [6] = Table 64, Herb. No. 1 0.018 Kg/Ha + Biocide No. 1 8.96 Kg/Ha + Antidote 4.48 Kg/Ha
# [7] = Table 64, Herb. No. 1 0.07 Kg/Ha + Biocide No. 1 8.96 Kg/Ha + Antidote 4.48 Kg/Ha
# [8] = Table 64, Herb. No. 1 0.28 Kg/Ha + Biocide No. 1 8.96 Kg/Ha + Antidote 4.48 Kg/Ha
# [9] = Table 65, Herb. No. 1 0.018 Kg/Ha + Biocide No. 1 8.96 Kg/Ha + Antidote 4.48 Kg/Ha
# [10] = Table 65, Herb. No. 1 0.07 Kg/Ha + Biocide No. 1 8.96 Kg/Ha + Antidote 4.48 Kg/Ha
# [11] = Table 65, Herb. No. 1 0.28 Kg/Ha + Biocide No. 1 8.96 Kg/Ha + Antidote 4.48 Kg/Ha
compound,measurement,setting,value
CC1(C)OC(c2ccco2)CN1C(=O)C(Cl)Cl (centres unmarked) [compound 1],% Inhibition VELE,"[1]; Antidote + Biocide No. 1 in furrow, Herbicide No. 1 0.14 Kg/Ha POE, 8 days after POE",95%
same,% Inhibition VELE,"[1]; Antidote + Biocide No. 1 in furrow, Herbicide No. 4 0.17 Kg/Ha POE, 8 days after POE",90%
same,% Inhibition VELE,"[1]; Antidote + Biocide No. 1 in furrow, Herbicide No. 5 0.07 Kg/Ha POE, 8 days after POE",95%
same,% Inhibition VELE,"[1]; Antidote + Biocide No. 1 in furrow, Herbicide No. 6 0.01 Kg/Ha POE",60%
same,% Inhibition VELE,"[1]; Antidote + Biocide No. 1 in furrow, Herbicide No. 7 0.56 Kg/Ha POE, 8 days after POE",75%
same,% Inhibition VELE,"[1]; Antidote + Biocide No. 1 in furrow, Herbicide No. 9 0.009 Kg/Ha POE",90%
same,% Inhibition VELE,"[1]; Antidote + Biocide No. 1 in furrow, Herbicide No. 10 0.002 Kg/Ha POE, 8 days after POE",90%
same,% Inhibition VELE,"[1]; Antidote + Biocide No. 1 in furrow, Herbicide No. 15 0.0044 Kg/Ha POE, 8 days after POE",75%
same,% Inhibition VELE,"[1]; Antidote + Biocide No. 1 in furrow, Herbicide No. 16 0.01 Kg/Ha POE",35%
same,% Inhibition VELE,"[1]; Antidote + Biocide No. 1 in furrow, Herbicide No. 18 0.0044 Kg/Ha POE",65%
same,% Inhibition VELE,"[1]; Antidote + Biocide No. 1 in furrow, Herbicide No. 19 0.28 Kg/Ha POE",65%
same,% Inhibition VELE,"[1]; Antidote + Biocide No. 1 in furrow, Herbicide No. 21 0.14 Kg/Ha POE",85%
same,% Inhibition VELE,"[1]; Antidote + Biocide No. 1 in furrow, Herbicide No. 23 0.0006 Kg/Ha POE",60%
same,% Inhibition VELE,"[1]; Herbicide No. 1 0.14 Kg/Ha POE + Biocide No. 1 in furrow, no antidote, 8 days after POE",90%
same,% Inhibition VELE,"[1]; Herbicide No. 1 0.14 Kg/Ha POE alone, 8 days after POE",85%
same,% Inhibition VELE,[2]; [6],65%
same,% Inhibition VELE,[2]; [7],85%
same,% Inhibition VELE,[2]; [8],95%
same,% Inhibition VELE,[2]; [9],10%
same,% Inhibition VELE,[2]; [10],75%
same,% Inhibition VELE,[2]; [11],90%
same,% Inhibition COTT,[3]; [6],20%
same,% Inhibition COTT,[3]; [7],35%
same,% Inhibition COTT,[3]; [8],35%
same,% Inhibition COTT,[3]; [9],10%
same,% Inhibition COTT,[3]; [10],20%
same,% Inhibition COTT,[3]; [11],45%
same,% Inhibition VELE,"[4]; […], 13 days after PPI (Table 31)",85%
same,% Inhibition VELE,"[4]; antidote 4.48 Kg/Ha + Herb. […], 13 days after planting",90%
same,% Inhibition 5 DAP VELE,"[5]; Antidote 4.48 + Biocide No. 1 8.96 Kg/Ha PPI, Herb. No. 8 0.07, 5 DAP, before herbicide application",0%
same,% Inhibition 13 DAP VELE,"[5]; Antidote 4.48 + Biocide No. 1 8.96 Kg/Ha PPI, Herb. No. 8 0.07 POE, 13 DAP",90%
same,% Inhibition VELE,"[5]; Antidote 4.48 + Biocide No. 1 8.96 Kg/Ha PPI, Herbicide No. 7 0.28 POE, 13 days after planting",70%
same,% Inhibition 5 DAP VELE,"[5]; Herb. […], 5 DAP, before herbicide application",0%
same,% Inhibition VELE,"[5]; Table 14: Herbicide No. 7 (ACCENT) 0.84 Kg/Ha POE + Biocide No. 2 8.96 Kg/Ha PPI + antidote 4.48 Kg/Ha PPI, 13 days after planting, 8 days after herbicide",65%
same,% Inhibition VELE,"[5]; […], 13 days after planting, 8 days after herbicide",70%
same,% Inhibition VELE,"[5]; […], observed 9 days later (Table 29)",90%
same,% Inhibition VELE,"[5]; […], observed 9 days later (Table 30)",75%
same,% Inhibition VELE,"[5]; […], observed 10 days after herbicide application",80%
same,% Inhibition 5 DAP VELE,[5]; in vivo,10%
same,% Inhibition 13 DAP VELE,[5]; in vivo,90%
same,% Inhibition VELE,[5]; in vivo,75% and 65% and 80% and 70% and 85%
